Molecular target: T1, human MRGPRX4 (Homo sapiens, UniProt Q96LA9)
T1 construct: expressed in transfected cells
Experiment: MRGPRX4 antagonist calcium assay (FLIPR, Fluo-8) in HEK293T cells stably expressing human MRGPRX4
Type: cell-based
Conditions: antagonist mode against 0.2 μM deoxycholic acid-3-phosphoric acid; for inhibition at 2 µM / inhibition at 0.5 µM: HEK-293T, HEK293T cells expressing human MRGPRX4; for inhibition at 2 µM: compound at 2 μM; for IC50: top conc. 30 μM, ten 3-fold serial dilutions, class symbols; for inhibition at 0.5 µM: compound at 500 nM
Method: HEK293T cells stably expressing human MRGPRX4 were cultured in DMEM medium supplements with 10% FBS, 100 U/mL penicillin-streptomycin, 20 mM HEPES and 1 μg/mL puromycin at 37° C. with 5% (v/v) CO2. One day before test, the cells were detached using TrypLE™ Express and counted using cell counter. In a 384-well plate cells were seeded at a density of 20,000 cells/well in 20 μL/well planting medium (DMEM medium supplements with 5% FBS, 100 U/mL penicillin-streptomycin and 20 mM HEPES), and incubated overnight at 37° C. with 5% (v/v) CO2. On the day of experiments, the dye solution, prepared following the manufacture's instruction of the Screen Quest™ Fluo-8 No Wash Calcium Assay Kit, was added to each well (20 μL/well) of the cell plate. The cell plate was incubated at 25° C. for 1 hour. Test compounds in different doses were transferred to the cell plate by FLIPR and the plate was kept in the dark at 25° C. for 30 minutes. The agonist solution, 0.2 μM of deoxycholic acid-3-phosphoric acid in assay buffer, was added to each well of the plate. The plate was read for 160 sec with 1 sec interval to obtain data of antagonist mode in FLIPR. […] Those skilled in the art appreciate that IC50 of various compounds can be assessed in accordance with the present disclosure.

T1 sequence (Q96LA9 whole entry): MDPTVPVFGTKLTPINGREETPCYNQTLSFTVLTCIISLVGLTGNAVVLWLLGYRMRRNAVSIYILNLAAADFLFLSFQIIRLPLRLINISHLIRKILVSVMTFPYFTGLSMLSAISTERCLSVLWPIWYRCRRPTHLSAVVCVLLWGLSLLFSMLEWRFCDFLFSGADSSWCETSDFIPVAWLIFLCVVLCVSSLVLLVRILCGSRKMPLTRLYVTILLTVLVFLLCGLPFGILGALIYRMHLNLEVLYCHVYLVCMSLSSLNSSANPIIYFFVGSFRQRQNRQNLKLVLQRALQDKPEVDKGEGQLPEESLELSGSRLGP

Structure (SMILES)	inhibition at 2 µM	IC50	inhibition at 0.5 µM
O=C(O)c1cccc2c1ccn2Cc1ccc(C(F)(F)F)cc1Cl [Compound 4]	91%	< 0.5 µM	
NC(=O)c1cccc2c1ccn2Cc1cccc(C(F)(F)F)c1Cl [Compound 53]			-7.6%
FC(F)(F)c1cccc(Cn2ccc3c(-c4nnn[nH]4)ncnc32)c1Cl [Compound 47]			13%
O=C(O)c1cccc2c1cnn2Cc1cc(C(F)(F)F)ccc1Cl [Compound 34]	-2.4%		
O=C(O)c1ncnc2c1ccn2Cc1cccc(C(F)(F)F)c1Cl [Compound 13]			27%
FC(F)(F)c1ccc(Cn2ccc3c(-c4nnn[nH]4)ncnc32)cc1Cl [Compound 48]			4.3%
O=C(O)c1ncnc2c1ccn2Cc1ccc(C(F)(F)F)c(Cl)c1 [Compound 14]			12%
O=C(O)c1cccc2c1ccn2Cc1cc(C(F)(F)F)ccc1Cl [Compound 35]	5.1%		
NC(=O)c1c(F)ccc2c1ccn2Cc1cccc(C(F)(F)F)c1Cl [Compound 55]			36%
Fc1ccc2c(ccn2Cc2ccc(C(F)(F)F)c(Cl)c2)c1-c1nnn[nH]1 [Compound 51]		< 0.5 µM	99.9%
Cc1cn(Cc2ccc(C(F)(F)F)cc2Cl)c2cccc(C(=O)O)c12 [Compound 20]	97%	0.5 to 5 µM	
O=C(O)c1cccc2c1ccn2Cc1ccc(Cl)c(C(F)(F)F)c1 [Compound 10]		< 0.5 µM	90%
O=C(O)c1cc(Br)cc2c1ccn2Cc1cccc(C(F)(F)F)c1Cl [Compound 30]		< 0.5 µM	97%
O=C(O)c1cccc2c1ccn2Cc1ccc(C(F)(F)F)cc1F [Compound 16]	94%	< 0.5 µM	
CC(c1ccc(C(F)(F)F)cc1)n1ccc2c(C(=O)O)cccc21 (centres unmarked) [Compound 15]			5.3%
Fc1cc(C(F)(F)F)ccc1Cn1ccc2c(-c3nnn[nH]3)cccc21 [Compound 43]	96%	< 0.5 µM	
O=C(O)c1c(F)ccc2c1ccn2Cc1ccc(C(F)(F)F)c(Cl)c1 [Compound 1]		< 0.5 µM	78%
O=C(O)c1cccc2c1ccn2Cc1ccc(C(F)(F)F)c(Cl)c1 [Compound 19, 1-(3-chloro-4-(trifluoromethyl)benzyl)-1H-indole-4-carboxylic acid]	99.7%	< 0.5 µM	
O=C(O)c1ccc(Cl)c2c1ccn2Cc1cccc(C(F)(F)F)c1Cl [Compound 40]			4.9%
FC(F)(F)c1ccc(Cn2ccc3c(-c4nnn[nH]4)cccc32)cc1 [Compound 41]	81%		
O=C(O)c1cccc2c1ccn2Cc1cccc(C(F)(F)F)c1 [Compound 9]			-1.6%
O=C(O)c1cccc2c1ccn2Cc1ccccc1C(F)(F)F [Compound 11]			-1.2%
O=C(O)c1c(F)ccc2c1ccn2Cc1cccc(C(F)(F)F)c1Cl [Compound 2]		< 0.5 µM	98%
FC(F)(F)c1cccc(Cn2ccc3c(-c4nnn[nH]4)cccc32)c1Cl [Compound 44]	65%	0.5 to 5 µM	
Cc1cc2c(C(=O)O)cccc2n1Cc1ccc(C(F)(F)F)cc1Cl [Compound 21]	52%		
FC(F)(F)c1ccc(Cn2ccc3c(-c4nnn[nH]4)cccc32)c(Br)c1 [Compound 45]	100%	< 0.5 µM	
O=C(O)c1cc(C2CC2)cc2c1ccn2Cc1cccc(C(F)(F)F)c1Cl [Compound 38]			44%

Structure (SMILES)	inhibition at 2 µM	IC50	inhibition at 0.5 µM
NC(=O)c1cccc2c1ccn2Cc1ccc(C(F)(F)F)c(Cl)c1 [Compound 54]			11%
O=C(O)c1cccc2c1ccn2Cc1ccc(C(F)(F)F)cc1 [Compound 3]	34%	0.5 to 5 µM	
Cc1cc2c(C(=O)O)cccc2n1Cc1cc(C(F)(F)F)ccc1Cl [Compound 18]	7.2%		
O=C(O)c1cccc2c1ccn2Cc1c(Cl)cccc1C(F)(F)F [Compound 22]	2.4%		
O=C(O)c1cccc2c1ccn2Cc1ccc(OC(F)(F)F)cc1 [Compound 7]			20%
FC(F)(F)c1ccc(Cn2ccc3c(-c4nnn[nH]4)cccc32)cc1Cl [Compound 46]	99.9%	< 0.5 µM	
O=C(O)c1cccc2c1ccn2Cc1c(Cl)cccc1Cl [Compound 32]	-13%		
O=C(O)c1cccc2c1ccn2Cc1ccc(C(F)(F)F)cc1Br [Compound 33]	98%	0.5 to 5 µM	
FC(F)(F)c1ccc(Cn2ccc3c(-c4nnn[nH]4)cccc32)c(Cl)c1 [Compound 42]	100%	< 0.5 µM	
O=C(O)c1cccc2c1ccn2Cc1cccc(C(F)(F)F)c1F [Compound 24]			20%
Cc1cn(Cc2cc(C(F)(F)F)ccc2Cl)c2cccc(C(=O)O)c12 [Compound 17]	3.6%		
Fc1cc(-c2nnn[nH]2)c2ccn(Cc3cccc(C(F)(F)F)c3Cl)c2c1 [Compound 50]			-11.2%
O=C(O)c1cccc2c1ccn2Cc1ccccc1Cl [Compound 36]	0.4%		
O=C(O)c1cc(F)cc2c1ccn2Cc1cccc(C(F)(F)F)c1Cl [Compound 28]		< 0.5 µM	86%
O=C(O)c1cc(Cl)cc2c1ccn2Cc1cccc(C(F)(F)F)c1Cl [Compound 29]		< 0.5 µM	76%
O=C(O)c1cccc2c1CCN2Cc1ccc(C(F)(F)F)cc1Cl [Compound 6]	18%		
O=C(O)c1cccc2c1CCN2Cc1ccc(C(F)(F)F)cc1 [Compound 5]	40%	> 5 µM	
O=C(O)c1cccc2c1ccn2Cc1cc(Cl)cc(C(F)(F)F)c1 [Compound 23]	29%		
O=C(O)c1cc(-c2ccccc2)cc2c1ccn2Cc1cccc(C(F)(F)F)c1Cl [Compound 39]			1.6%
O=C(O)c1cccc2c1ccn2Cc1ccc(OC(F)(F)F)c(Cl)c1 [Compound 8]		< 0.5 µM	64%
O=C(O)c1cccc2c1ncn2Cc1ccc(C(F)(F)F)cc1Cl [Compound 26]	49%		
O=C(O)c1cccc2c1ccn2CCc1ccc(C(F)(F)F)cc1Cl [Compound 25]		> 5 µM	
O=C(O)c1cccc2c1ccn2Cc1cccc(C(F)(F)F)c1Cl [Compound 12]	101%	< 0.5 µM	
O=C(O)c1cccc2c1ccn2Cc1c(Cl)cc(C(F)(F)F)cc1Cl [Compound 31]	-6.2%		
O=C(O)c1cccc2c1ccn2CCc1cc(C(F)(F)F)ccc1Cl [Compound 37]	5.5%		
O=C(O)c1cccc2c1cnn2Cc1ccc(C(F)(F)F)cc1Cl [Compound 27]	72%		

Reference: patent publication US20260285869A1, “COMPOUNDS, COMPOSITIONS AND METHODS THEREOF” (HEPAITECH (BEIJING) BIOPHARMA TECHNOLOGY CO., LTD., priority 2023, published 2026)
